Source: patent US20040142968A1, “Method and kit for treating lower bowel pain” (priority 2003, published 2004)

Key:
[1] = tested on: patient with bowel pain associated with menses; details: open injection at 4 hours after the placebo saline administration
Procedure: The patients were greeted in a waiting room, escorted to an examination room, and introduced to the study. […] A one-hour NH condition preceded either the RL or RP administration in both sessions. Thus, patients rated their rectal pain for one hour at 15-minute intervals before injection of the rectal agent (NH) and 15 min, 30 min, 45 min, 1 hour, 2 hours, 4 hours, and 6 hours afterwards. Both agents were applied through a plastic syringe. […] After all of the sessions were completed, the patients were debriefed.

[2] = tested on: patients with pain associated with IBS
Source text: Ten Caucasian pre-menopausal women with IBS participated in the study. The mean age was 33 (±4) years. All participants completed a GI symptom questionnaire and received a physical examination by an experienced gastroenterologist. The diagnosis of IBS was made based on the ROME II criteria and exclusion of organic disease (Thompson et al., 1999). All the patients had diarrhea-predominant IBS and had symptoms for at least 5 years. All of the IBS patients were carefully screened to verify that each patient had no clinical criteria for fibromyalgia or chronic pain condition.
All subjects were asked to fast for 12 hours and self-administer one Fleets® enema (CB Fleet Co., Inc., Lynchberg, Va.) at least two hours prior to arriving for the experimental procedures. […] A validated visual analogue scale was used to measure the subjects' perceived pain (Price, 1994).
A one-hour NH condition preceded either the RL or RP administration in both sessions. Thus, patients rated their rectal pain for one hour at 15-minute intervals before injection of the rectal agent (NH) and 15 min, 30 min, 45 min, 1 hour, 2 hours, 4 hours, and 6 hours afterwards. Both agents were applied through a plastic syringe.
The pain rating at each post-treatment time point was subtracted from the baseline rating to create a pain intensity difference score (PID) for each post-treatment time point of each patient. […]

CCN(CC)CC(=O)Nc1c(C)cccc1C [lidocaine]
effect of open injection on bowel pain [1]: reversed bowel pain | duration of pain ameliorating effect in IBS patients [2]: at least 4 hours
